Biological target: AMPK
Assay: AMPK activation, enzyme-linked immunosorbent assay
Type: biochemical
Conditions: Table 8, compounds of Table 1
Summary of the method: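 Read-out: ELISA, used to detect compound-driven activation of AMPK.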

EC50	SMILES
1000 to 5000 nM	O=C(N[C@@H]1CCN(S(=O)(=O)c2cccnc2)C1)c1cc2cc(OC3CCN(c4ccc(C(F)(F)F)cc4)CC3)ccc2o1 [Compound 1-126, (R)-N-(1-(pyridin-3-ylsulfonyl)pyrrolidin-3-yl)-5-(1-(4-(trifluoromethyl)phenyl)piperidin-4-yloxy)benzofuran-2-carboxamide]
1000 to 5000 nM	CC(C)(C)OC(=O)N1CC[C@H](NC(=O)c2cc3cc(OC4CCN(Cc5ccc(Cl)cc5)CC4)ccc3o2)C1 [Compound 1-127, (S)-tert-butyl 3-(5-(1-(4-chlorobenzyl)piperidin-4-yloxy)benzofuran-2-carboxamido) pyrrolidine-1-carboxylate]
> 10000 nM	O=C(N[C@H]1CCNC1)c1cc2cc(OC3CCN(Cc4ccc(Cl)cc4)CC3)ccc2o1 [Compound 1-128, (S)-5-(1-(4-chlorobenzyl)piperidin-4-yloxy)-N-(pyrrolidin-3-yl)benzofuran-2-carboxamide]
1000 to 5000 nM	O=C(N[C@H]1CCN(Cc2ccncc2)C1)c1cc2cc(OC3CCN(Cc4ccc(Cl)cc4)CC3)ccc2o1 [Compound 1-129, (S)-5-(1-(4-chlorobenzyl)piperidin-4-yloxy)-N-(1-(pyridin-4-ylmethyl)pyrrolidin-3-yl)benzofuran-2-carboxamide]
1000 to 5000 nM	O=C(N[C@H]1CCN(Cc2cccnc2)C1)c1cc2cc(OC3CCN(Cc4ccc(Cl)cc4)CC3)ccc2o1 [Compound 1-130, (S)-5-(1-(4-chlorobenzyl)piperidin-4-yloxy)-N-(1-(pyridin-3-ylmethyl)pyrrolidin-3-yl)benzofuran-2-carboxamide]
1000 to 5000 nM	NC(=O)c1ccc(CN2CCC(Oc3ccc4oc(C(=O)NC5CCN(Cc6ccncc6)CC5)cc4c3)CC2)cc1 [Compound 1-131, 5-(1-(4-carbamoylbenzyl)piperidin-4-yloxy)-N-(1-(pyridin-4-ylmethyl)piperidin-4-yl)benzofuran-2-carboxamide]
< 100 nM	O=C(NC1CCN(Cc2ccncc2)CC1)c1cc2cc(OC3CCN(c4ccc(OC(F)(F)F)cc4)CC3)ccc2s1 [Compound 1-137, N-(1-(pyridin-4-ylmethyl)piperidin-4-yl)-5-(1-(4-(trifluoromethoxy)phenyl)piperidin-4-yloxy)benzo [b]thiophene-2-carboxamide]
< 100 nM	O=C(NC1CCN(Cc2ccncc2)CC1)c1cc2cc(OC3CCN(c4ccc(C(F)(F)F)cc4)CC3)ccc2s1 [Compound 1-138, N-(1-(pyridin-4-ylmethyl)piperidin-4-yl)-5-(1-(4-(trifluoromethyl)phenyl)piperidin-4-yloxy)benzo [b]thiophene-2-carboxamide]
500 to 1000 nM	CC(C)(C)OC(=O)N1CCC(NC(=O)c2cc3ccc(OC4CCN(c5ccc(C(F)(F)F)cc5)CC4)cc3s2)CC1 [Compound 1-140, tert-butyl 4-(6-(1-(4-(trifluoromethyl)phenyl)piperidin-4-yloxy)benzo[b]thiophene-2-carboxamido) piperidine-1-carboxylate]
100 to 500 nM	O=C(NC1CCNCC1)c1cc2ccc(OC3CCN(c4ccc(C(F)(F)F)cc4)CC3)cc2s1 [Compound 1-141, N-(piperidin-4-yl)-6-(1-(4-(trifluoromethyl)phenyl)piperidin-4-yloxy)benzo[b] thiophene-2-carboxamide]
< 100 nM	N#Cc1ccc(CN2CCC(NC(=O)c3cc4ccc(OC5CCN(c6ccc(C(F)(F)F)cc6)CC5)cc4s3)CC2)cc1 [Compound 1-144, N-(1-(4-cyanobenzyl)piperidin-4-yl)-6-(1-(4-(trifluoromethyl)phenyl)piperidin-4-yloxy)benzo [b]thiophene-2-carboxamide]
100 to 500 nM	N#Cc1cccc(CN2CCC(NC(=O)c3cc4ccc(OC5CCN(c6ccc(C(F)(F)F)cc6)CC5)cc4s3)CC2)c1 [Compound 1-145, N-(1-(3-cyanobenzyl)piperidin-4-yl)-6-(1-(4-(trifluoromethyl)phenyl)piperidin-4-yloxy)benzo [b]thiophene-2-carboxamide]
100 to 500 nM	N#Cc1ccccc1CN1CCC(NC(=O)c2cc3ccc(OC4CCN(c5ccc(C(F)(F)F)cc5)CC4)cc3s2)CC1 [Compound 1-146, N-(1-(2-cyanobenzyl)piperidin-4-yl)-6-(1-(4-(trifluoromethyl)phenyl)piperidin-4-yloxy)benzo [b]thiophene-2-carboxamide]
1000 to 5000 nM	CC(C)(C)OC(=O)N1CCC(NC(=O)c2sc3cc(OC4CCN(c5ccc(C(F)(F)F)cc5)CC4)ccc3c2Cl)CC1 [Compound 1-147, tert-butyl 4-(3-chloro-6-(1-(4-(trifluoromethyl)phenyl)piperidin-4-yloxy)benzo [b]thiophene-2-carboxamido) piperidine-1-carboxylate]
> 10000 nM	O=C(NC1CCNCC1)c1sc2cc(OC3CCN(c4ccc(C(F)(F)F)cc4)CC3)ccc2c1Cl [Compound 1-148, 3-chloro-N-(piperidin-4-yl)-6-(1-(4-(trifluoromethyl)phenyl)piperidin-4-yloxy)benzo [b]thiophene-2-carboxamide]
< 100 nM	CC(C)(C)OC(=O)N1CCC(NC(=O)c2cc3cc(OC4CCN(c5ccc(C(F)(F)F)cc5)CC4)ccc3s2)CC1 [Compound 1-149, tert-butyl 4-(5-(1-(4-(trifluoromethyl)phenyl)piperidin-4-yloxy)benzo [b]thiophene-2-carboxamido) piperidine-1-carboxylate]
1000 to 5000 nM	O=C(NC1CCNCC1)c1cc2cc(OC3CCN(c4ccc(C(F)(F)F)cc4)CC3)ccc2s1 [Compound 1-150, N-(piperidin-4-yl)-5-(1-(4-(trifluoromethyl)phenyl)piperidin-4-yloxy)benzo [b]thiophene-2-carboxamide]
< 100 nM	O=C(NC1CCN(Cc2ccncc2)CC1)c1sc2cc(OC3CCN(c4ccc(C(F)(F)F)cc4)CC3)ccc2c1Cl [Compound 1-151, 3-chloro-N-(1-(pyridin-4-ylmethyl)piperidin-4-yl)-6-(1-(4-(trifluoromethyl)phenyl)piperidin-4-yloxy)benzo[b] thiophene-2-carboxamide]
< 100 nM	O=C(NC1CCN(Cc2cccnc2)CC1)c1sc2cc(OC3CCN(c4ccc(C(F)(F)F)cc4)CC3)ccc2c1Cl [Compound 1-152, 3-chloro-N-(1-(pyridin-3-ylmethyl)piperidin-4-yl)-6-(1-(4-(trifluoromethyl)phenyl)piperidin-4-yloxy)benzo[b] thiophene-2-carboxamide]
100 to 500 nM	O=C(NC1CCN(Cc2ccccn2)CC1)c1sc2cc(OC3CCN(c4ccc(C(F)(F)F)cc4)CC3)ccc2c1Cl [Compound 1-153, 3-chloro-N-(1-(pyridin-2-ylmethyl)piperidin-4-yl)-6-(1-(4-(trifluoromethyl)phenyl)piperidin-4-yloxy)benzo[b] thiophene-2-carboxamide]
< 100 nM	N#Cc1ccc(CN2CCC(NC(=O)c3sc4cc(OC5CCN(c6ccc(C(F)(F)F)cc6)CC5)ccc4c3Cl)CC2)cc1 [Compound 1-154, 3-chloro-N-(1-(4-cyanobenzyl)piperidin-4-yl)-6-(1-(4-(trifluoromethyl)phenyl)piperidin-4-yloxy)benzo[b] thiophene-2-carboxamide]
< 100 nM	O=C(NC1CCN(C(=O)c2ccncc2)CC1)c1sc2cc(OC3CCN(c4ccc(C(F)(F)F)cc4)CC3)ccc2c1Cl [Compound 1-155, 3-chloro-N-(1-isonicotinoylpiperidin-4-yl)-6-(1-(4-(trifluoromethyl)phenyl)piperidin-4-yloxy)benzo[b] thiophene-2-carboxamide]
100 to 500 nM	CC(C)(C)OC(=O)N1CCC(NC2CCc3cc(OC4CCN(c5ccc(C(F)(F)F)cc5)CC4)ccc32)CC1 (stereo not drawn) [Compound 1-156, tert-butyl 4-(5-(1-(4-(trifluoromethyl)phenyl)piperidin-4-yloxy)-2,3-dihydro-1H-inden-1-ylamino)piperidine-1-carboxylate]
1000 to 5000 nM	FC(F)(F)c1ccc(N2CCC(Oc3ccc4c(c3)CCC4NC3CCNCC3)CC2)cc1 (stereo not drawn) [Compound 1-157, N-(5-(1-(4-(trifluoromethyl)phenyl)piperidin-4-yloxy)-2,3-dihydro-1H-inden-1-yl)piperidin-4-amine]
100 to 500 nM	FC(F)(F)c1ccc(N2CCC(Oc3ccc4c(c3)CCC4NC3CCN(Cc4ccncc4)CC3)CC2)cc1 (stereo not drawn) [Compound 1-158, 1-(pyridin-4-ylmethyl)-N-(5-(1-(4-(trifluoromethyl)phenyl)piperidin-4-yloxy)-2,3-dihydro-1H-inden-1-yl)piperidin-4-amine]
100 to 500 nM	Fc1ccc(CN2CCC(NC3CCc4cc(OC5CCN(c6ccc(C(F)(F)F)cc6)CC5)ccc43)CC2)cc1 (stereo not drawn) [Compound 1-159, 1-(4-fluorobenzyl)-N-(5-(1-(4-(trifluoromethyl)phenyl)piperidin-4-yloxy)-2,3-dihydro-1H-inden-1-yl)piperidin-4-amine]
< 100 nM	N#Cc1ccc(CN2CCC(NC3CCc4cc(OC5CCN(c6ccc(C(F)(F)F)cc6)CC5)ccc43)CC2)cc1 (stereo not drawn) [Compound 1-160, 4-((4-(5-(1-(4-(trifluoromethyl)phenyl)piperidin-4-yloxy)-2,3-dihydro-1H-inden-1-ylamino)piperidin-1-yl)methyl)benzonitrile]
500 to 1000 nM	N#Cc1ccc(CN2CCC(NC(=O)c3cc4ccc(OC5CCN(Cc6cnn(-c7ccc(C#N)cc7)c6)CC5)cc4o3)CC2)cc1 [Compound 1-161, N-(1-(4-cyanobenzyl)piperidin-4-yl)-6-(1-((1-(4-cyanophenyl)-1H-pyrazol-4-yl)methyl)piperidin-4-yloxy)benzofuran-2-carboxamide]
< 100 nM	N#Cc1ccc(CN2CCC(NC(=O)c3cc4cc(OC5CCN(Cc6cnn(-c7ccc(C#N)cc7)c6)CC5)ccc4o3)CC2)cc1 [Compound 1-162, N-(1-(4-cyanobenzyl)piperidin-4-yl)-5-(1-((1-(4-cyanophenyl)-1H-pyrazol-4-yl)methyl)piperidin-4-yloxy)benzofuran-2-carboxamide]
< 100 nM	N#Cc1ccc(CN2CCC(NC(=O)c3cc4cc(OC5CCN(C(=O)c6ccc(-n7cccn7)cc6)CC5)ccc4o3)CC2)cc1 [Compound 1-163, 5-(1-(4-(1H-pyrazol-1-yl)benzoyl)piperidin-4-yloxy)-N-(1-(4-cyanobenzyl)piperidin-4-yl)benzofuran-2-carboxamide]

— patent publication US9409884B2 (Rigel Pharmaceuticals, Inc., priority 2012, dated 2016)
